Reference: US20230285258A1, “A SUNSCREEN FORMULATION” (priority 2019, published 2023)

Key:
[1] = Mice skin penetration test (ointment on shaved back, plasma HPLC)
Protocol: Mice preparation and blood sample taking: A group of mice ranging from 16 to 60 were fed with adequate food and water for 3 days. Twelve hours before the test the food was removed, and only water was given. Usually 12 mice were randomly selected with 2 mice assigned for each time points of 5, 15, 30, 60, 90, 120 minutes. Sometimes 3 mice may be selected for certain sample time points. Two hours before the test the mice were subjected to anesthesia and the hair on the back (2.5--3.0 cm^2) was removed. After recovering from anesthesia mice will be applied with testing ointment sample. The exact same testing procedures will be carried out with the control standard sample. At 5, 15, 30, 60, 90, 120 min. Blood sample (1 mL) will be collected after removing the eyes.
Blood sample pretreatment: after the blood sample was taken, it was immediately subjected to centrifugation 10 min. at 12000 rpm, supernatant plasma layer was taken, preserved at -20° C. for later use.
Blood sample preparation: Accurately transfer 150 µL plasma sample to a 1.5 mL EP test tube. Add methanol and acetonitrile 200 µL, respectively. Vertex mix for 1 min., then centrifuge for 10 min. at 12000 rpm. Precisely transfer the supernatant solution to another test tube. At 40° C. blow N2 through to dryness. To the solids left add methanol 150 µL, vertex mix for 1 min. centrifuge at 12000 rpm for 10 min. Supernatant solution was used directly for HPLC analysis.
(4-Aminomethoxy-2-hydroxy-phenyl)-phenyl-methanone-PAA-OMe-OPr(40): Column: C18 RP column (250 × 4.6 mm, 5 µm); column temperature: 25° C.; mobile phase: MeOH:0.05% Formic Acid = 70:30; Flow rate: 1.0 mL/min.; Wavelength: 310 nm; Injection volume: 20 L;
1-[4-(3-Amino-propoxy)-2-hydroxy-phenyl1-3-(4-tert-butyl-phenyl)-propane)-1,3-dione-PAA-OMe-OPr(40): Column: C18 RP column (250 × 4.6 mm, 5 m); column temperature: 25° C.; mobile phase: MeOH:0.05% Formic Acid = 80:20; Flow rate: 1.0 mL/min.; Wavelength: 360 nm; Injection volume: 20 µL; […]

[2] = formulation containing 10%, 2 mg/cm^2 daily for a week, cited from earlier work
[3] = Urine samples collected in 2007-2009 from Californian females; type: in vivo, human; conditions: from 22.9 ng/mL to 200 ng/mL
Protocol: Since the first day of sunscreen usage in 1930s, the exposure to sunscreen agents has begun. Initially the scope and frequency of the sunscreen usage among the human population was very limited. Therefore, the levels of UV filters found in human samples were usually low. However, for the last 20 years, the situation changed dramatically. In one epidemiological study conducted in 2003-2004, 2517 urine samples from United States (US) general population were analyzed for the presence of oxybenzone (benzophenone-3, bp-3), as part of the 2003-2004 National Health and Nutrition Examination Survey [A.M. Calafat, L.Y.Wong, X.YE, J.A.Reidy, L.L.Needham, Concentrations of the sunscreen agent benzophenone-3 in residents of the United States: National Health and nutrition Examination Survey 2003-2004, Environ. Health Perspect, 116(2008)893-897]. Oxybenzone was detected in 97% of the all samples with mean concentration of 22.9 ng/ml and 95th percentile concentration of 1040 ng/ml. As the data indicated the sunscreen agent occurrences is widespread. […] 543(2016)28-36]. […]

[4] = Californian females 2007-2009; cited from earlier work
[5] = US general population 2003-2004; cited from earlier work

Row | Compound | hydrolysis in the plasma ([1]; inferred from mice blood samples after topical application) | sunscreen agent detected in plasma/blood samples by HPLC ([1]; mice, samples at 5, 15, 30, 60, 90, 120 min after topical application) | skin penetration of the sunscreen agent ([1]; topical test formulation on mice back, plasma at 5-120 min, compared with control formulation) | mean urine concentration, females ([2]; adults) [ng/mL] | mean urine concentration, males ([2]; adults) [ng/mL] | maximum plasma concentration, females [2] [ng/mL] | maximum plasma concentration, males [2] [ng/mL] | increase of average concentration in urine sample compared to the 2003-2004 study [3] | average level in urine samples [4] | highest level in urine samples [4] | 95th percentile concentration in urine [5] [ng/mL] | mean concentration in urine [5] [ng/mL]
1 | Octandioic Oxybenzone Ester | rapid hydrolysis | no octandioic oxybenzone esters was detected | skin penetration of octandioic oxybenzone ester |  |  |  |  |  |  |  |  | 
2 | CCCCC(CC)COC(=O)C=Cc1ccc(OC)cc1 (stereo not drawn) [octyl methoxycinnamate] |  |  |  | 5 | 8 | 10 | 2 |  |  |  |  | 
3 | Cc1ccc(C=C2C(=O)C3(C)CCC2C3(C)C)cc1 (stereo not drawn) [4-methylbenzylidene camphor] |  |  |  | 5 |  | 20 | 20 |  |  |  |  | 
4 | COc1ccc(C(=O)c2ccccc2)c(O)c1 [oxybenzone] |  |  |  | 60 |  | 200 | 300 | more than 9 folds | around 200 ng/ml | up to 13000 ng/ml | 1040 | 22.9
